Numbers after ± are expanded uncertainties.

The data set in a line: activity coefficient (dimensionless); of the first substance listed, at infinite dilution; xn = mol fraction of the nth substance listed. The following applies: 298.15 K; 238 kPa; Liquid; Chromatography; x1 = 0.
For `CCCCCCCC` [octane] + CC(C)=O, the activity coefficient was 10.7 ± 0.9.

For the molecule `Cc1ccccc1` [toluene] + CC(C)=O, the activity coefficient amounted to 2.01 ± 0.17.

As to `Cc1ccccc1` [toluene] + CC#N, the activity coefficient came out at 3.95 ± 0.34.

Consider `CCCCCCCC` [octane] + CC#N, for which the activity coefficient stood at 52.3 ± 4.5.

Values taken from the NIST ThermoML archive (doi:10.1016/j.jct.2015.12.034).
